Results: article PMC11795524, “Melanin-Binding-Based Discovery of Topically Instilled Carbonic Anhydrase Inhibitors for Targeted Delivery and Prolonged Action in the Eye” (Molecular Pharmaceutics, 2025)
Read-outs that look alike come from different tables or passages of the source.

Columns and labels:
[1] = target: recombinant human carbonic anhydrase II; set-up: method as in earlier work; details: stopped flow kinetics protocol; read-out: Ki against hCA II; cited from earlier work
[2] = In vitro melanin binding by microscale thermophoresis / initial fluorescence (Monolith NT.115 pico); details: Appendix table 1, Nano or Pico detector, IF or MST mode, 68% confidence; for Kd: read-out: Melanin binding affinity Kd ± confidence
Description: Melanin binding of the CAI-II compounds was studied with a Monolith NT.115 pico (NanoTemper Technologies GmbH, Munich, Germany) device using the method of […] et al. […] Otherwise, normalized fluorescence signals and the ratio of relative fluorescence after heating (MST mode) were used. The MST software was used in expert mode to allow heating for 30 s. […] As ligand autofluorescence may interfere with the assay, their autofluorescence values were pretested with the detector used in experiment (nanoblue or pico-red). Fluorescence of the ligand should be below 20% of melanin fluorescence. Sample aggregation and adsorption to the capillaries were used also as exclusion criteria.

[3] = target: T1, human carbonic anhydrase II (Homo sapiens, UniProt P00918); assay: Multiparametric surface plasmon resonance (MP-SPR) interaction kinetics with immobilized hCAII; assay type: binding
T1 construct: purchased Sigma
Procedure: All MP-SPR measurements were conducted at 25 °C using carboxymethyl dextran hydrogel-coated (CMD-3DM) sensors (BioNavis) and were based on the protocol described by Rogez-Florent et al.[22]
Human carbonic anhydrase isoenzyme II (Sigma) was immobilized using a standard amine coupling procedure with the Amine Coupling Kit (BioNavis) and phosphate buffered saline (PBS) (20 mM phosphate buffer, 150 mM NaCl, pH 7.4) as the background buffer. Before immobilization, the sensor surface was cleaned with 2 M sodium chloride and 10 mM sodium hydroxide for 6 min at a flow rate of 30 μL/min. Then, a constant flow rate of 10 μL/min was maintained throughout the immobilization steps. The surface was activated for 7 min with 200 mM 1-ethyl-3-(3-(dimethylamino)propyl)-carbodiimide (EDC) and 50 mM N-hydroxysuccinimide, immediately followed by a 5 min injection of 45 μg/mL hCAII solution in 10 mM acetate buffer, pH 5.5. In the reference flow channel, no enzyme was immobilized. Residual activated groups of the dextran matrix were deactivated by a 7 min injection of 1 M ethanolamine HCl, pH 8.3.
For analyzing CAIs, 1% (v/v) DMSO in PBS, pH 7.4, was used as a running buffer. All CAIs were dissolved in 100% DMSO and stored as 50 mM stock solutions. These stock solutions were further diluted with the running buffer and analyzed using a 3-fold (3–1000 nM) dilution series. […] Each analyte was injected at a flow rate of 100 μL/min, with an association time of 2 min and a dissociation time of 10 min. […] Seven concentrations were measured for each CAI per cycle, and a “wash all” step with running buffer was performed at the end of each cycle to minimize the carry over effects. Each CAI were assayed in triplicate across three independent experiments.
The acquired data were processed using MP-SPR Navi Data Viewer software (version 6.7.0.1, BioNavis) employing the weighted centroid method for determining the SPR peak angular position. Signals from the reference flow channel were subtracted from the corresponding signals of the flow channel containing immobilized hCAII. The moment of sample injection was selected as the zero-time point, where both the time and MP-SPR response were set to zero. Processed data were globally fitted to a simple 1:1 interaction model using TraceDrawer software (version 1.9.2, Ridgeview Instruments AB, Sweden) to obtain kinetic parameters.

[4] = MP-SPR, 25 °C, 1:1 model, read-out: KD

| Compound | Kd [2] [µM] | Ki [1] [nM] | also measured |
| --- | --- | --- | --- |
| NS(=O)(=O)c1ccc(-n2ncccc2=O)cc1 [A20] |  | 8.2 ± 0.8 |  |
| NS(=O)(=O)c1ccc(-n2nc(-c3ccc(Cl)c(Cl)c3)ccc2=O)cc1 [A25] |  | 74.1 ± 7.4 |  |
| CC(C)(C)c1ccc(-c2noc(-c3ccc(S(N)(=O)=O)cc3)n2)cc1 [A26] |  | 0.95 ± 0.09 |  |
| NS(=O)(=O)c1ccc(Cl)c(-n2cccn2)c1 [A27] |  | 0.001 ± 0.001 |  |
| Cc1cc(C)n(-c2ccc(S(N)(=O)=O)cc2)n1 [A28] |  | 0.004 ± 0.001 |  |
| NS(=O)(=O)c1ccc(-n2ncc(N3CCc4ccccc4C3)c(Cl)c2=O)cc1 [A29] |  | 60.5 ± 6 |  |
| Cc1ccc(=O)n(-c2ccc(S(N)(=O)=O)cc2)n1 [A30] |  | 0.68 ± 0.07 | Melanin binding affinity Kd ± confidence [2]: Not detectable |
| CCn1nc(-c2cc(S(N)(=O)=O)c(C)s2)ccc1=O [B01] | 105 ± 30 | 4.8 ± 0.5 |  |
| NS(=O)(=O)c1ccc(-c2ncc(C(=O)N3CCNCC3)o2)s1 [B02] | 165 ± 19 | 0.069 ± 0.007 |  |
| NS(=O)(=O)c1cc(-c2noc(C3CC3)n2)cs1 [B05] | 448 ± 166 | 0.88 ± 0.08 |  |
| Cc1nn(-c2ccc(Cl)c(S(N)(=O)=O)c2)c(C)c1S(N)(=O)=O [B08] |  | 0.008 ± 0.001 |  |
| Nc1onc(-c2csc(S(N)(=O)=O)c2)c1S(N)(=O)=O [B09] | 2130 | 24.6 ± 2.5 |  |
| Cc1nn(-c2cc(S(N)(=O)=O)ccc2Cl)c(C)c1S(N)(=O)=O [B10] |  | 0.008 ± 0.01 |  |
| Cc1ccccc1-n1nc(C)c(S(N)(=O)=O)c1C [B11] |  | 0.091 ± 0.01 | Melanin binding affinity Kd ± confidence [2]: Not detectable |
| NS(=O)(=O)NCc1ccc(F)cc1 [C03] | 361 ± 700 | 70.5 ± 7.1 |  |
| NS(=O)(=O)N1CCC(O)CC1 [C04] | 405 ± 311 | 42.7 ± 4.3 |  |
| NS(=O)(=O)NCC1CCCO1 (stereo not drawn) [C05] | 412 ± 802 | 63.4 ± 6.3 |  |

| Compound | Kd [2] [µM] | Ki [1] [nM] | also measured |
| --- | --- | --- | --- |
| NS(=O)(=O)Nc1ccc(C(F)(F)F)cc1 [C06] | 582 ± 465 | 37.8 ± 3.8 |  |
| NS(=O)(=O)NCCc1ccc(S(=O)(=O)N2CCCC2)cc1 [C07] | 596 ± 264 | 43.5 ± 4.4 |  |
| NS(=O)(=O)N1CCc2ccccc2C1 [C09] | 1120 ± 2350 | 32.8 ± 3.3 |  |
| CCN(CC)CCN(C)S(N)(=O)=O [C10] | 1520 ± 4030 | 92.3 ± 9.2 |  |
| CN(C)CCN(Cc1ccccc1)S(N)(=O)=O [C11] | 1620 ± 4530 | 39.8 ± 4 |  |
| CN1CCC(NS(N)(=O)=O)CC1 [C12] | 1680 ± 3480 | 52.1 ± 5.2 |  |
| CC1Cc2ccccc2N1S(N)(=O)=O (stereo not drawn) [C13] | 1700 | 316 ± 31.6 |  |
| NS(=O)(=O)N1CCC(N2CCCCC2)CC1 [C14] |  | 99.3 ± 9.9 |  |
| NS(=O)(=O)N1CCCc2ccccc21 [C15] |  | 89.5 ± 9 |  |
| NS(=O)(=O)NC1CCCc2ccccc21 (stereo not drawn) [C16] | 25000 | 42.6 ± 4.3 |  |
| CC(C)(C)OC(=O)N1CCN(S(N)(=O)=O)CC1 [C17] |  | 16.2 ± 1.6 | Melanin binding affinity Kd ± confidence [2]: Not detectable |
| COC(=O)C1CCCN1S(N)(=O)=O (stereo not drawn) [C18] |  | 69.8 ± 7 | Melanin binding affinity Kd ± confidence [2]: Not detectable |
| NS(=O)(=O)N1CCc2ccccc21 [C19] |  | 472 ± 47.2 | Melanin binding affinity Kd ± confidence [2]: Not detectable |
| CCOC(=O)C1CCN(S(N)(=O)=O)CC1 [C20] |  | 42.8 ± 4.3 | Melanin binding affinity Kd ± confidence [2]: Not detectable |
| NS(=O)(=O)N1CCOCC1 [C21] |  | 66.9 ± 7 | Melanin binding affinity Kd ± confidence [2]: Not detectable |
| NC(=O)C1CCN(S(N)(=O)=O)CC1 [C22] |  | 59.4 ± 6 | Melanin binding affinity Kd ± confidence [2]: Not detectable |

Further lines, with some results ahead:

| Kd [2] [µM] | Compound | Ki [1] [nM] | also measured |
| --- | --- | --- | --- |
| 78 ± 24 | NS(=O)(=O)c1cccc(-c2nc(-c3cccnc3)no2)c1 [A02] | 0.77 ± 0.08 |  |
| 78 ± 39 | NS(=O)(=O)c1ccc(-n2nc(-c3ccccc3)ccc2=O)cc1 [A03] | 0.26 ± 0.03 |  |
| 92 ± 17 | COc1ccc(-c2noc(-c3ccc(S(N)(=O)=O)cc3)n2)cc1OC [A04] | 0.46 ± 0.05 |  |
| 97 ± 44 | CC(=NNc1ccc(S(N)(=O)=O)cc1)c1nccnc1C [A05] |  | ka ([3]; MP-SPR, 25 °C, 1:1 model): 0.61 ± 0.25 10^6 M^–1 s^–1; kd ([3]; MP-SPR, 25 °C, 1:1 model): 1.70 ± 0.25 10^–2 s^–1; Kd [3, 4]: 0.0315 ± 0.00919 µM |
| 104 ± 42 | NS(=O)(=O)c1ccc(-n2ncc3ccccc3c2=O)cc1 [A06] | 0.23 ± 0.02 |  |
| 115 ± 85 | NS(=O)(=O)c1ccc(NN=C(c2cncc(F)c2)C2CC2)cc1 [A07] |  | ka ([3]; MP-SPR, 25 °C, 1:1 model): 0.24 ± 0.05 10^6 M^–1 s^–1; kd ([3]; MP-SPR, 25 °C, 1:1 model): 1.78 ± 0.40 10^–2 s^–1; Kd [3, 4]: 0.0756 ± 0.0112 µM; Kd ([3]; surface plasmon resonance, Appendix table 1, read-out: Kd against hCA II): 0.0756 ± 0.0112 µM |
| 142 ± 55 | COc1ccc2cnn(-c3ccc(S(N)(=O)=O)cc3)c(=O)c2c1OC [A08] | 3.5 ± 0.4 |  |
| 152 ± 98 | COc1cc(S(N)(=O)=O)ccc1-c1nc(-c2cccnc2)no1 [A09] | 0.74 ± 0.08 |  |
| 156 ± 101 | COc1ccc(-c2ccc(=O)n(-c3ccc(S(N)(=O)=O)cc3)n2)cc1 [A10] | 0.08 ± 0.001 |  |
| 177 ± 56 | Cc1ccccc1-c1noc(-c2ccc(S(N)(=O)=O)cc2)n1 [A11] | 0.42 ± 0.04 |  |
| 203 ± 367 | NS(=O)(=O)c1ccc(-n2cccn2)cc1 [A13] | 0.072 ± 0.001 |  |
| 205 ± 98 | Cc1nn(-c2ccc(S(N)(=O)=O)cc2)c(=O)c2ccccc12 [A14] | 0.03 ± 0.01 |  |
| 230 ± 85 | CC(=NNc1ccc(S(N)(=O)=O)cc1Br)c1cccnc1 [A15] |  | ka ([3]; MP-SPR, 25 °C, 1:1 model): 0.43 ± 0.25 10^6 M^–1 s^–1; kd ([3]; MP-SPR, 25 °C, 1:1 model): 1.25 ± 0.43 10^–2 s^–1; Kd [3, 4]: 0.046 ± 0.0298 µM |
| 451 ± 581 | NS(=O)(=O)c1ccc(-c2nc(-c3ccc(Oc4ccc(F)cc4)cc3)no2)cc1 [A16] | 48.3 ± 4.8 |  |
| 483 ± 137 | CC(=NNc1ccc(S(N)(=O)=O)cc1)c1cnc2ccccc2n1 [A17] |  | ka ([3]; MP-SPR, 25 °C, 1:1 model): 0.13 ± 0.05 10^6 M^–1 s^–1; kd ([3]; MP-SPR, 25 °C, 1:1 model): 1.27 ± 0.11 10^–2 s^–1; Kd [3, 4]: 0.113 ± 0.0507 µM |
| 520 ± 79 | NS(=O)(=O)c1ccc(-c2noc(-c3ccsc3)n2)cc1 [A18] | 44.3 ± 4.4 |  |
| 561 ± 299 | CC(=NNc1ccc(S(N)(=O)=O)cc1)c1cncc(Br)c1 [A19] |  | ka ([3]; MP-SPR, 25 °C, 1:1 model): 0.15 ± 0.04 10^6 M^–1 s^–1; kd ([3]; MP-SPR, 25 °C, 1:1 model): 2.25 ± 0.02 10^–2 s^–1; Kd [3, 4]: 0.161 ± 0.041 µM |
| 722 ± 1030 | NS(=O)(=O)c1ccc2c(c1)Oc1ccccc1C(=O)N2C1CC1 [A21] | 0.82 ± 0.08 |  |
| 957 ± 2010 | Cc1cc(-n2cccn2)ccc1S(N)(=O)=O [A23] | 0.008 ± 0.001 |  |
| 1550 ± 4580 | COc1cc(S(N)(=O)=O)ccc1-c1nc(-c2ccc3c(c2)OC(=O)CN3C)no1 [A24] | 48.3 ± 4.8 |  |
| 231 ± 43 | CC(=O)Nc1nc(-c2csc(S(N)(=O)=O)c2)no1 [B03] |  |  |
| 393 ± 185 | NS(=O)(=O)c1ccc(-c2ccc(=O)[nH]n2)s1 [B04] | 3.6 ± 0.4 |  |
| 573 ± 154 | Cc1ccc(-c2noc(N)c2S(N)(=O)=O)cc1S(N)(=O)=O [B06] | 6 ± 0.6 |  |
| 941 ± 1740 | NS(=O)(=O)c1cnn(-c2ccc(Cl)c(S(N)(=O)=O)c2)c1 [B07] | 0.008 ± 0.001 |  |
| 92 ± 25 | NS(=O)(=O)Nc1ccc(F)cc1F [C01] | 76.3 ± 7.6 |  |
| 122 ± 40 | NS(=O)(=O)NCc1cccc2ccccc12 [C02] | 5250 ± 525 |  |
| 1050 ± 2070 | NS(=O)(=O)Nc1cccc2ccccc12 [C08] | 56.7 ± 5.7 |  |
